PubChem BioAssay (NCI)
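Five compound concentrations were applied to cells in 96-well plates for 48 hours; endpoints were derived by simple linear interpolation of the resulting dose-response curve. The concentration for full growth arrest is given as TGI.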

Legend:
Assay in all cases: NCI tumour cell line growth inhibition, 48 h
UACC-62 melanoma = test system: UACC-62 melanoma
SK-MEL-28 melanoma = test system: SK-MEL-28 melanoma
CAKI-1 renal = test system: CAKI-1 renal
MALME-3M melanoma = test system: MALME-3M melanoma
SK-MEL-5 melanoma = test system: SK-MEL-5 melanoma
HOP-92 NSCLC = test system: HOP-92 NSCLC
U251 CNS = test system: U251 CNS
MCF7 breast = test system: MCF7 breast
TK-10 renal = test system: TK-10 renal
KM12 colon = test system: KM12 colon
SK-OV-3 ovarian = test system: SK-OV-3 ovarian
LOX IMVI melanoma = test system: LOX IMVI melanoma

Compound | TGI (UACC-62 melanoma) [µM] | TGI (SK-MEL-28 melanoma) [µM] | TGI (CAKI-1 renal) [µM] | TGI (MALME-3M melanoma) [µM] | TGI (SK-MEL-5 melanoma) [µM] | TGI (HOP-92 NSCLC) [µM] | TGI (U251 CNS) [µM] | TGI (MCF7 breast) [µM] | TGI (TK-10 renal) [µM] | TGI (KM12 colon) [µM] | TGI (SK-OV-3 ovarian) [µM] | TGI (LOX IMVI melanoma) [µM]
N#CC(C#N)=Cc1ccc(C=C2SC3=C(SCCS3)S2)s1 | > 100 | > 100 | > 100 | > 100 | > 100 | > 100 | > 100 | > 100 | 68.6 | > 100 | > 100 | 
CCOP(=O)(OCC)/C(C#N)=C/c1ccc[nH]1 | > 100 | > 100 | > 100 | > 100 | > 100 | > 100 | > 100 |  | > 100 | > 100 | > 100 | > 100
CC(=O)O[C@H]1[C@@H](OC2CCCC2(c2ccccc2)c2ccccc2)O[N+]([O-])=C[C@@]12COCc1cc3c(cc12)OCO3 (some centres undefined) | 25.9 | > 28.4 | > 100 |  | 16.8 | 30.7 | 22.6 | > 45.2 | > 24.7 | 11.3 | > 91.6 | > 26.6
CCCC(=O)/C=C/S/C=C/C(=O)CCC | 29.8 | 18.7 | 7.4 | 25.4 | 16.1 |  | 66.2 | > 100 | 14.5 | 37.3 | > 100 | 6.27
COc1cc2c(oc(=O)c3cc4ccoc4c(OC)c32)c2cccc(O)c12 | > 100 | > 100 | > 100 | > 100 | > 100 | > 100 | > 100 |  | > 100 | > 100 | > 100 | > 100
CC(=O)N1CC[N+](C)(CCCCN2c3ccccc3Sc3cc(N=[N+]=[N-])ccc32)CC1 | > 100 | > 100 | > 100 | > 100 | > 100 |  | > 100 | > 100 | > 100 | > 100 | > 100 | > 100
Cc1nc2c(n1CCC(C)C)C(=O)c1ccccc1C2=O | 27 | 38.8 |  | 55.3 | 28.4 |  | 60.4 |  | > 100 | > 100 | > 100 | 30.9
Cc1ccc(NC(=O)C(=O)C2NC(=S)NC2=O)c([N+](=O)[O-])c1 (centres undefined) | > 100 | > 100 | > 100 | > 100 | > 100 | > 100 | > 100 |  | > 100 | > 100 | > 100 | > 100
COc1ccc(CC2NCCc3cc(OC)c(OC)cc32)cc1 (centres undefined) | > 100 | > 100 | > 100 | > 100 | > 100 | > 100 | > 100 |  | > 100 | > 100 | > 100 | > 100
CCN(CC)CCC(=O)N1CCc2c([nH]c3ccccc23)C1c1cccnc1 (centres undefined) | > 100 | > 100 | > 100 |  | > 100 | > 100 | > 100 |  | > 100 | > 100 | > 100 | > 100
O=C1c2ccccc2C(=O)C2C3c4ccccc4C(c4ccccc43)C12 (centres undefined) | > 100 | > 100 |  | 38.8 |  |  | > 100 |  | 63.3 | > 100 | > 100 | 28.9
O=C(Nc1nncs1)NS(=O)(=O)n1cnc2ccccc21 | > 100 | > 100 | > 100 | > 100 | > 100 | > 100 | > 100 |  | > 100 | > 100 | > 100 | 
COC(=O)c1cc(-c2ccc(-c3ccc(O)cc3)cc2)cc(-c2ccc(-c3ccc(O)cc3)cc2)c1 |  | 25.7 | 29.5 |  | 30.7 | 20.9 |  | 25.9 | 26.7 | 6.82 | 29.6 | 18.4
O=C1/C(=C/c2ccc(Cl)cc2)N=C(c2ccccc2)N1C1Nc2cc3c(cc2S1)NC(N1C(=O)/C(=C/c2ccc(Cl)cc2)N=C1c1ccccc1)S3 (centres undefined) |  | > 100 | > 100 |  | > 100 | > 100 | > 100 | > 100 | > 100 | > 100 | > 100 | > 100
Cc1ccc(S(=O)C[C@@]2(C(F)F)NC(=O)NC2=O)cc1 (some centres undefined) | > 100 | > 100 | > 100 | > 100 | > 100 | > 100 | > 100 |  | > 100 | > 100 | > 100 | > 100
C[N+](C)(C)Cc1c(CC#N)[nH]c2ccccc12 | > 100 | > 100 | > 100 | > 100 | > 100 |  | > 100 |  | > 100 | > 100 |  | > 100
C=CCOC(=O)CCCCCCCCCCCCCCCOC(=O)c1c(CCC[C@@H](C)O[Si](C)(C)C(C)(C)C)nc(=O)n2c1CC[C@H]2CC1(CC/C=C\[C@H](CC)O[Si](C(C)C)(C(C)C)C(C)C)OCCO1 | > 100 | > 100 | > 100 | > 100 | 46.8 | 41.9 | 31.8 | > 100 | > 100 | > 100 | > 100 | 
CC(=O)OC1(C#N)CC2OC1C1C2N1C(=O)OC(C)(C)C (centres undefined) | > 100 | > 100 | > 100 | > 100 | > 100 | > 100 | > 100 |  | > 100 |  | > 100 | > 100
Cc1cc(NS(=O)(=O)c2ccc(NC(=O)c3cccc4cc5ccccc5nc34)cc2)no1 | 48.5 | 33.1 | 46.7 | 31.9 | 30.3 |  | 75.5 |  | 89.3 | 40.7 | > 100 | 
c1cc2cc(c1)CN1CCNCCN(CCNCC1)Cc1cccc(c1)CN1CCNCCN(CCNCC1)C2 | > 100 | > 100 |  | > 100 | > 100 |  | > 100 | > 100 | > 100 | > 100 | > 100 | > 100
